Active and inactive are the calls of the source.
Assays:
HEK293 = assay: EBV LMP1 TES2 canonical NF-kB signalling blockers – cell-based, HEK293, luciferase, cherry-pick, dose response (AID 588343); format: functional; conditions: Homo sapiens
[1] = target: Dual specificity tyrosine-phosphorylation-regulated kinase 1A (Rattus norvegicus, UniProt Q63470); format: biochemical, Homo sapiens
[2] = blockers of HIV-1 ZM109 envelope-driven cell-cell fusion – HeLa effector, CEM target cells, luciferase, cherry-pick, dose response (AID 652058); format: functional, cell-based;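 note: luciferase signal from HIV-1 Env mediated cell-cell fusion of effector and target cells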
[3] = HIV-1 AD8 envelope cell-cell fusion blockers – cherry-pick, dose response (AID 652062); format: functional, cell-based;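 note: luciferase signal from cell-cell fusion driven by HIV-1 clade B AD8 Env; potency is for inhibitors of fusion seen as a drop in luminescence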
[4] = off-target signal loss in HeLa-CEM21 co-culture – HeLa F-luc CTL cells, cherry-picked, counter-screen for HIV-1 Env fusion inhibitor project, dose response (AID 652040); format: functional, cell-based;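 note: potency for signal decrease marking cytotoxic or nonspecific inhibition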
[5] = blockers of HIV-1 envelope-mediated cell-cell fusion – cherry-pick, dose response (AID 652057); format: functional, cell-based
[6] = target: T1, Sentrin-specific protease 6 (Homo sapiens, UniProt Q9GZR1); format: functional;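 note: Luminescence-based dose-response confirmatory assay of SENP6 inhibition, following up an ultra-high-throughput screen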
T1 sequence (Q9GZR1 whole entry): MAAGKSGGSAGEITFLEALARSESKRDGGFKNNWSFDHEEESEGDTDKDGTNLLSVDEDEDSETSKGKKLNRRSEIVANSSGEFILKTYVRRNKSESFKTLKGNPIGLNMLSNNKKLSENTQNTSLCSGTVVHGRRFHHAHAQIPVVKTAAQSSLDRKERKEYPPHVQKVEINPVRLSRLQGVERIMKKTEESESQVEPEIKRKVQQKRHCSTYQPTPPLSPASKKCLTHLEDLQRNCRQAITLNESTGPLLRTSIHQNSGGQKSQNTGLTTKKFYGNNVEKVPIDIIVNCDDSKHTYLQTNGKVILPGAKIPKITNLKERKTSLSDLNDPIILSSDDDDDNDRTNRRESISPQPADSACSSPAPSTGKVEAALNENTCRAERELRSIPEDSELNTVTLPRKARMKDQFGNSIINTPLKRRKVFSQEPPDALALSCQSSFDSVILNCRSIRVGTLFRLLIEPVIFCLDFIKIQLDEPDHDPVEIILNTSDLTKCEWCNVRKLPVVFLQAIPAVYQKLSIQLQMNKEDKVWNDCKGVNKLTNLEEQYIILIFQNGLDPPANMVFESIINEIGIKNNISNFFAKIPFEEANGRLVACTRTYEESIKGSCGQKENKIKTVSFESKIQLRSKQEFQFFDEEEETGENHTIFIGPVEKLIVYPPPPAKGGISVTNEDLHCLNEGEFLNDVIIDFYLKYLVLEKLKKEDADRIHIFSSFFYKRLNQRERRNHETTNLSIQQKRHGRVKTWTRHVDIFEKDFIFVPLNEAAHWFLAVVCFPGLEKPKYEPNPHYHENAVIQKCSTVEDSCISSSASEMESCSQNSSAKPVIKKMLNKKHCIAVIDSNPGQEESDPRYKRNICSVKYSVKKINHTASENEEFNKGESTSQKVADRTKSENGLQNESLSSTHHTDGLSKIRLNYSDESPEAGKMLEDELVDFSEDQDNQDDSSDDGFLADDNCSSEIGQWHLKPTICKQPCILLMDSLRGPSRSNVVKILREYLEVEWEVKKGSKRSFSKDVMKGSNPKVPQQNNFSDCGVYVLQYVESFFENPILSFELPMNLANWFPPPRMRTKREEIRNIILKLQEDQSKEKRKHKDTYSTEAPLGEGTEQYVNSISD

HeLa = assay: ATP-based viability loss in HeLa cells – cell-based, CellTiter-Glo luminescence, cherry-pick samples, cytotoxicity control for MITF activator project, dose response (AID 540259); format: functional; conditions: Homo sapiens
Caspase-3 = target: T2, Caspase-3 (Homo sapiens, UniProt P42574); format: functional;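 note: Dose-response selectivity test against caspase-3 for candidate inhibitors of sentrin-specific proteases (SENPs)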
T2 sequence (P42574 whole entry): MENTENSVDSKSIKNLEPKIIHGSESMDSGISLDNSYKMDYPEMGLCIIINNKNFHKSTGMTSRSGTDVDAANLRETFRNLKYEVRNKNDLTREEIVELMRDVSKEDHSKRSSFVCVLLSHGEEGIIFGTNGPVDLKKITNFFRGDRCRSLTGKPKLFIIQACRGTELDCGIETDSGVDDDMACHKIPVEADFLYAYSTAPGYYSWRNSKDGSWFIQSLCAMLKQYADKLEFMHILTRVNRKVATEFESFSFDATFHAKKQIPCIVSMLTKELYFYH

[7] = target: T3, Sentrin-specific protease 7 (Homo sapiens, UniProt Q9BQF6); format: functional;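 note: Luminescence-based dose-response confirmation of ultra-high-throughput screening hits, measuring inhibition of SENP7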
T3 sequence (Q9BQF6 whole entry): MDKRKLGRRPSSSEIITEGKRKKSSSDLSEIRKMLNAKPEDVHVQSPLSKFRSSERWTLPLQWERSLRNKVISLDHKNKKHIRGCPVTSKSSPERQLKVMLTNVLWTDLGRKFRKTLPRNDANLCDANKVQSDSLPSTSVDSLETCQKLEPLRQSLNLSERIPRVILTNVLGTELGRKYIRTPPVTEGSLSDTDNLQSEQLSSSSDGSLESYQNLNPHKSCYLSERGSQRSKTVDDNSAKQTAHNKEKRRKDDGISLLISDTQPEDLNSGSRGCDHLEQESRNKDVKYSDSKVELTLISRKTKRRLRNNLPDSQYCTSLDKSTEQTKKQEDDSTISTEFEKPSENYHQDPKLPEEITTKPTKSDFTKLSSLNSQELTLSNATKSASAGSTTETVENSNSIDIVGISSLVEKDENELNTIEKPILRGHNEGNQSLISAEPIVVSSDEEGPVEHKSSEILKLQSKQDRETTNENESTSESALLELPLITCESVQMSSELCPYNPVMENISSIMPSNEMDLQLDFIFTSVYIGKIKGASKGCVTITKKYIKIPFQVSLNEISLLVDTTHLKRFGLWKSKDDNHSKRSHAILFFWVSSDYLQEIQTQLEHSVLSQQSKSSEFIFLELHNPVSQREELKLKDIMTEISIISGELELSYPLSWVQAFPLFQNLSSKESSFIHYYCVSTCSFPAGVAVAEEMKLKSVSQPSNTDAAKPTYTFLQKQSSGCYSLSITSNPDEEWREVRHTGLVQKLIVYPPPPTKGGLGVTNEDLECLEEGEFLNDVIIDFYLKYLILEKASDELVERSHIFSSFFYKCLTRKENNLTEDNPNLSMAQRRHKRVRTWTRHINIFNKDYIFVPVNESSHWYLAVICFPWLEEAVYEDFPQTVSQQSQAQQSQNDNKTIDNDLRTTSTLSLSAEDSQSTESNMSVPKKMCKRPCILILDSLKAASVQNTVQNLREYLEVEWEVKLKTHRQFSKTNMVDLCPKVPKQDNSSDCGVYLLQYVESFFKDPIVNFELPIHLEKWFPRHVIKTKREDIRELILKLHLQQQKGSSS

[8] = target: T4, Sentrin-specific protease 8 (Homo sapiens, UniProt Q96LD8); format: functional;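 note: luminescence read-out of SENP8 inhibition, dose-response confirmation following an ultra-high-throughput screen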
T4 sequence (Q96LD8 whole entry): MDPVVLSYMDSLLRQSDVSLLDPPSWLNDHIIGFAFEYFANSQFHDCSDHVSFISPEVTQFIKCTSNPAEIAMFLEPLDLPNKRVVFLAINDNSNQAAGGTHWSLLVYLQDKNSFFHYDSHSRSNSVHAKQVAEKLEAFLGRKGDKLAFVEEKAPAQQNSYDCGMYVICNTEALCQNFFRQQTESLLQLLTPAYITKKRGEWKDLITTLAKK

[9] = target: T5, Rac GTPase-activating protein 1 (Homo sapiens, UniProt Q9H0H5); assay: blockers of MgcRacGAP-driven Rac1 GTP hydrolysis – biochemical, ADP Hunter fluorescence, primary and confirmatory, confirmation (AID 624330); format: functional
T5 sequence (Q9H0H5 whole entry): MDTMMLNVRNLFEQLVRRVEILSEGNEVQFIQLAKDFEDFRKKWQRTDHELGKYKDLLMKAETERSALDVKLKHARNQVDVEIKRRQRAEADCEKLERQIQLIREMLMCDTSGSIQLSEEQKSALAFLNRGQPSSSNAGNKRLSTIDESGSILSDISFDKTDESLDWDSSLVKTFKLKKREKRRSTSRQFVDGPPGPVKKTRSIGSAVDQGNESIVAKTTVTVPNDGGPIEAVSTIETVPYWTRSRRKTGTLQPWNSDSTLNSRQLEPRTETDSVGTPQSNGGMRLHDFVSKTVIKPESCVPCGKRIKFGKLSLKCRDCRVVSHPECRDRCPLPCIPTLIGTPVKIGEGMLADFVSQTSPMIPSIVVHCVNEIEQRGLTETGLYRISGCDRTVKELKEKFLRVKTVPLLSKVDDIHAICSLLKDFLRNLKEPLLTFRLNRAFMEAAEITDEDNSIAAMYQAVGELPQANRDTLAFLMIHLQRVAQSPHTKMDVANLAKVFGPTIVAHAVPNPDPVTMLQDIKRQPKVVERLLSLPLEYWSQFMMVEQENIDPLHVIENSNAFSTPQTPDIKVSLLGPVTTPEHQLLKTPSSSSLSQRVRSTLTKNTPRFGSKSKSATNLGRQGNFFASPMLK

[10] = target: T6, Adenosylmethionine-8-amino-7-oxononanoate aminotransferase (Mycobacterium tuberculosis, UniProt P9WQ81); assay: Mycobacterium tuberculosis BioA enzyme inhibitor Measured in Biochemical System Using Plate Reader - 2163-02_Inhibitor_Dose_CherryPick_Activity.; format: functional, Mycobacterium tuberculosis UT205
T6 sequence (P9WQ81 whole entry): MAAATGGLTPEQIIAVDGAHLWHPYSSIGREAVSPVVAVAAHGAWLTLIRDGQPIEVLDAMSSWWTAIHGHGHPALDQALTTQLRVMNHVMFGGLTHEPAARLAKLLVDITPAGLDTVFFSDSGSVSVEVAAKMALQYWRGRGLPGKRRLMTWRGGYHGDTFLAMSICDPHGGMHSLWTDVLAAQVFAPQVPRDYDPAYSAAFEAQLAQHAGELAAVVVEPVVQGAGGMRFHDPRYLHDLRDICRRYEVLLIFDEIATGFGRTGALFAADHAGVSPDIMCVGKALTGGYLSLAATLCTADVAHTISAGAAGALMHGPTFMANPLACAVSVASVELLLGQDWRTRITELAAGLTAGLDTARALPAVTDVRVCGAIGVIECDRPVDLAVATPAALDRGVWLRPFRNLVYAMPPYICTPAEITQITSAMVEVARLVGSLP

[11] = target: T7, Low molecular weight phosphotyrosine protein phosphatase (Homo sapiens, UniProt P24666); format: functional; conditions: read-out: IC50_Mean;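 note: Dose-response confirmation assay measuring inhibition of LMPTP enzyme activity by fluorescence intensity read-out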
T7 sequence (P24666 whole entry): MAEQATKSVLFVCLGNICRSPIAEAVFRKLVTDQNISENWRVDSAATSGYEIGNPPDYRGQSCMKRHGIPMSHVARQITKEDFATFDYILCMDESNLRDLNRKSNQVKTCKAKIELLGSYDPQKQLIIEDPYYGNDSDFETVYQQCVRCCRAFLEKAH

O=C(CSc1nnc(NC(=O)c2ccc3c(c2)OCO3)s1)NCc1ccco1
AC50 (HEK293): 2.65 µM (active)

Fc1ccc(NC(S)=Nc2cccc3cnccc23)cc1
AC50 [1]: 9.44 µM (active)

O=C(CCCC(=O)N(c1ccc2c(c1)OCCO2)C(C(=O)NC1CCCCC1)c1ccc(F)cc1)Nc1ccccn1 (configuration not stated)
AC50 [2]: 4.52 µM (active) | AC50 [3]: 31.9 µM (active) | AC50 [4]: 42.5 µM (active) | AC50 [5]: 6.87 µM (active)

Cc1ccc(O)c(C2=Nc3ccccc3C2(C)C)c1
IC50 [6]: 18.2 µM (active) | AC50 (HeLa): 31.6 µM (active) | IC50 (Caspase-3): 22.5 µM (active) | IC50 [7]: 4.9 µM (active) | IC50 [8]: 26.9 µM (active)

Cn1c(C(=O)NCC2CCCO2)cc2c(=O)n(C)c3ccccc3c21 (configuration not stated)
AC50 [1]: 13.4 µM (active)

CCOc1cc(-c2nc3ccccc3s2)ccc1O
AC50 [1]: 5.92 µM (active) | IC50 [9]: 33.4 µM (active)

Cc1nc2ccccc2nc(C)c1=NOCc1cccc(Cl)c1
AC50 [2]: 13 µM (active) | AC50 [3]: 0.421 µM (active) | AC50 [4]: 11.6 µM (active) | AC50 [5]: 10.3 µM (active)

COc1ccc(F)cc1C(=O)C1CCCN(C(=O)c2ccc(C(C)=O)s2)C1 (configuration not stated)
AC50 [10]: 1.06 µM (active)

C[C@@]12C(=O)N(Cc3ccco3)CC(=O)N1[C@H]1c3ccccc3OC[C@@H]1[C@@H]2c1ccccc1
AC50 [2]: 3.09 µM (active) | AC50 [4]: 12.4 µM (active) | AC50 [5]: 3.14 µM (active)

CC(=O)c1c(C)[nH]c(C(=O)Nc2cccnc2)c1C
AC50 [10]: 3 µM (active)

C[C@@H]1CN([C@H](C)CO)C(=O)c2cc(C#Cc3cccnc3)cnc2O[C@H]1CN(C)S(C)(=O)=O
AC50 [10]: 3.35 µM (active)

CN(C)C(=O)C[C@@H]1C[C@H]2c3cc(NS(=O)(=O)c4ccc(F)cc4)ccc3O[C@H]2[C@H](CO)O1
AC50 [3]: 3.41 µM (active)

COc1ccc(C(=O)Nc2cccc(C(=O)N/N=C/c3ccc(OC)cc3OC)c2)cc1
AC50 (HEK293): 1.79 µM (active)

CN(C)c1ccc(/C=N/NC(=O)c2nnn(-c3nonc3N)c2COc2ccc(F)cc2)cc1
IC50 [11]: 12 µM (active)
